Reference: patent US20210107871A1 (priority 2017, published 2021)

Test system: pseudotype VSV (expressing GFP) having the surface glycoprotein of Ebola virus (zaire sp.)
Assay: microbe, parasite or virus in culture
Type: cell-based
Conditions: for activity at 0.312 µM / activity at 0.625 µM / activity at 1.25 µM / activity at 2.5 µM / activity at 5 µM / activity at 0.005 µM / activity at 0.02 µM / activity at 0.078 µM: Vesicular stomatitis virus, Vero C1008, 18 h, read-out: Viral Infection rate (%); for activity at 0.312 µM: Compound Conc. 0.312 μM; for activity at 0.625 µM: Compound Conc. 0.625 μM; for activity at 1.25 µM: Compound Conc. 1.25 μM; for activity at 2.5 µM: Compound Conc. 2.5 μM; for activity at 0.005 µM: Compound Conc. 0.005 μM; for activity at 0.02 µM: Compound Conc. 0.020 μM; for activity at 0.078 µM: Compound Conc. 0.078 μM

CCN(CC)CCCN(c1ccc(OC)cc1[N+](=O)[O-])S(=O)(=O)c1ccccc1 [4-1, N-[3-(diethylamino)propyl]-N-(4-methoxy-2-nitro-phenyl)benzensulfonamide]
activity at 0.312 µM: 87.5% | activity at 0.625 µM: ~38% | activity at 1.25 µM: ~12% | activity at 2.5 µM: 2.83% | activity at 5 µM (Compound Conc. 5 μM): 1.83%

CCN(CC)CCCN(c1ccc(OC)cc1[N+](=O)[O-])S(=O)(=O)c1ccc(F)cc1 [4-3, 4-fluoro-N-[3-(diethylamino)propyl]-N-(4-methoxy-2-nitro-phenyl)benzensulfonamide]
activity at 0.312 µM: 105% | activity at 0.625 µM: 88.1% | activity at 1.25 µM: 52.8% | activity at 2.5 µM: 18.4% | activity at 5 µM (Compound Conc. 5 μM): 3.8%

CCN(CC)CCCN(c1ccc(OC)cc1[N+](=O)[O-])S(=O)(=O)c1cccc(F)c1 [4-4, 3-fluoro-N-[3-(diethylamino)propyl]-N-(4-methoxy-2-nitro-phenyl)benzensulfonamide]
activity at 0.312 µM: 84.4% | activity at 0.625 µM: 71.3% | activity at 1.25 µM: 29.7% | activity at 2.5 µM: 8.13% | activity at 5 µM (Compound Conc. 5 μM): 2.05%

CCN(CC)CCCN(c1ccc(OC)cc1[N+](=O)[O-])S(=O)(=O)c1ccccc1F [4-5, 2-fluoro-N-[3-(diethylamino)propyl]-N-(4-methoxy-2-nitro-phenyl)benzensulfonamide]
activity at 0.625 µM: 94.2% | activity at 1.25 µM: 54.9% | activity at 5 µM (Compound Conc. 5 μM): 3.18%

CCN(CC)CCCN(c1ccc(OC)cc1[N+](=O)[O-])S(=O)(=O)c1cccc(C)c1 [4-6, 3-methyl-N-[3-(diethylamino)propyl]-N-(4-methoxy-2-nitro-phenyl)benzenesulfonamide]
activity at 0.312 µM: 91.2% | activity at 0.625 µM: 91.1% | activity at 1.25 µM: 57.1% | activity at 2.5 µM: 20.1% | activity at 5 µM (Compound Conc. 5 μM): 3.8%

CCN(CC)CCCN(c1ccc(OC)cc1[N+](=O)[O-])S(=O)(=O)c1ccccc1C [4-7, 2-methyl-N-[3-(diethylamino)propyl]-N-(4-methoxy-2-nitro-phenyl)benzensulfonamide]
activity at 0.312 µM: 87.2% | activity at 0.625 µM: 68.4% | activity at 1.25 µM: 37% | activity at 2.5 µM: 12.9% | activity at 5 µM (Compound Conc. 5 μM): 5.08%

CCN(CC)CCCN(c1ccccc1-c1ccccc1)S(=O)(=O)c1ccccc1 [4-8, N-[3-(diethylamino)propyl]-N-(2-phenyl-phenyl)benzensulfonamide]
activity at 0.312 µM: 89% | activity at 1.25 µM: 10.8% | activity at 2.5 µM: 1.93% | activity at 5 µM (Compound Conc. 5 μM): 1.11%

CCN(CC)CCCN(c1ccc(OC)cc1[N+](=O)[O-])S(=O)(=O)c1cccc2ccccc12 [4-9, N-[3-(diethylamino)propyl]-N-(4-methoxy-2-nitro-phenyl)naphthalene-1-sulfonamide]
activity at 0.312 µM: 82.5% | activity at 0.625 µM: 58.6% | activity at 1.25 µM: 20.8% | activity at 5 µM (Compound Conc. 5 μM): 2.32%

CCN(CC)CCCN(c1ccc(OC)cc1[N+](=O)[O-])S(=O)(=O)c1ccc2ccccc2c1 [4-10, N-[3-(diethylamino)propyl]-N-(4-methoxy-2-nitro-phenyl)naphthalene-2-sulfonamide]
activity at 0.312 µM: 106% | activity at 0.625 µM: 103% | activity at 2.5 µM: 22.7% | activity at 5 µM (Compound Conc. 5 μM): 3.57%

CCN(CC)CCCN(c1ccc(OC)cc1[N+](=O)[O-])S(=O)(=O)c1ccc(OC)cc1 [4-11, 4-methoxy-N-[3-(diethylamino)propyl]-N-(4-methoxy-2-nitro-phenyl)benzensulfonamide]
activity at 0.312 µM: 88.3% | activity at 5 µM (Compound Conc. 5 μM): 2.09%

CCN(CC)CCCN(c1ccccc1-c1ccccc1)S(=O)(=O)c1cccc2ccccc12 [4-13, N-[3-(diethylamino)propyl]-N-(2-phenyl-phenyl)naphthalene-1-sulfonamide]
activity at 0.625 µM: 90.2%

CCN(CC)CCCN(c1ccccc1-c1ccccc1)S(=O)(=O)c1ccc(OC)cc1 [4-14, 4-methoxy-N-[3-(diethylamino)propyl]-N-(2-phenyl-phenyl)benzensulfonamide]
activity at 0.312 µM: 77.4% | activity at 0.625 µM: 42.2% | activity at 1.25 µM: 7.82% | activity at 5 µM (Compound Conc. 5 μM): 0.83%

COc1ccc(N(CC2CCN(C(=O)OC(C)(C)C)CC2)S(=O)(=O)c2ccccc2)c(-c2ccccc2)c1 [4-18, t-butyl-4-[[N-(benzenesulfonyl)-4-methoxy-2-phenyl-anilino]methyl]piperidine-1-carboxylate]
activity at 5 µM (Compound Conc. 5 μM): 23.3%

COc1ccc(N(CC2CCNCC2)S(=O)(=O)c2ccccc2)c(-c2ccccc2)c1 [4-19, N-(4-methoxy-2-phenyl-phenyl)-N-(4-piperidylmethyl)benzensulfonamide]
activity at 0.312 µM: 83.3% | activity at 0.625 µM: 78.5% | activity at 1.25 µM: 52.3% | activity at 5 µM (Compound Conc. 5 μM): 2.2%

COc1ccc(N(CC2CCCN(C(=O)OC(C)(C)C)C2)S(=O)(=O)c2ccccc2)c(-c2ccccc2)c1 (stereo not drawn) [4-22, t-butyl-3-[[N-(benzenesulfonyl)-4-methoxy-2-phenyl-anilino]methyl]piperidine-1-carboxylate]
activity at 5 µM (Compound Conc. 5 μM): ~8.7%

COc1ccc(N(CC2CCCNC2)S(=O)(=O)c2ccccc2)c(-c2ccccc2)c1 (stereo not drawn) [4-23, N-(4-methoxy-2-phenyl-phenyl)-N-(3-piperidylmethyl)benzensulfonamide]
activity at 0.312 µM: 100% | activity at 2.5 µM: ~24.4% | activity at 5 µM (Compound Conc. 5 μM): 1.79%

CCN1CCCC(CN(c2ccc(OC)cc2-c2ccccc2)S(=O)(=O)c2ccccc2)C1 (stereo not drawn) [4-25]
activity at 0.312 µM: 58.1% | activity at 0.625 µM: 24.3% | activity at 1.25 µM: 2.51% | activity at 2.5 µM: 0.14% | activity at 5 µM (Compound Conc. 5 μM): 0.14%

CNCCCN(c1ccc(OC)cc1-c1ccccc1)S(=O)(=O)c1ccccc1 [4-30, N-(4-methoxy-2-phenyl-phenyl)-N-[3-(methylamino)propyl]-benzensulfonamide]
activity at 0.005 µM: 92.6% | activity at 0.02 µM: 91% | activity at 0.078 µM: 78.1% | activity at 0.625 µM: 80.8% | activity at 2.5 µM: 4.17%

COc1ccc(N(CCCNC(=O)OC(C)(C)C)S(=O)(=O)c2ccccc2)c(-c2ccccc2)c1 [4-31, t-butyl-N-[3-[N-(benzenesulfonyl)-4-methoxy-2-phenyl-anilino]propyl]carbamate]
activity at 0.312 µM: ~100% | activity at 5 µM (Compound Conc. 5 μM): 8.51%

COc1ccc(N(CCCN)S(=O)(=O)c2ccccc2)c(-c2ccccc2)c1 [4-32, N-(3-aminopropyl)-N-(4-methoxy-2-phenyl-phenyl)benzensulfonamide]
activity at 0.312 µM: 86% | activity at 0.625 µM: 82.4% | activity at 1.25 µM: 57.8% | activity at 2.5 µM: 15.8% | activity at 5 µM (Compound Conc. 5 μM): 0.47%

COc1ccc(N(CCN(C)C)S(=O)(=O)c2ccccc2)c(-c2ccccc2)c1 [4-33, N-[3-(dimethylamimo)ethyl]-N-(4-methoxy-2-phenyl-phenyl)benzensulfonamide]
activity at 0.312 µM: 81.1% | activity at 0.625 µM: 71.3% | activity at 1.25 µM: 17.1% | activity at 2.5 µM: 1.51% | activity at 5 µM (Compound Conc. 5 μM): 0.1%

COc1ccc(N(CCN2CCOCC2)S(=O)(=O)c2ccccc2)c(-c2ccccc2)c1 [4-34, N-(4-methoxy-2-phenyl-phenyl)-N-(2-morpholinoethyl)benzensulfonamide]
activity at 1.25 µM: 76.9% | activity at 2.5 µM: 40.2% | activity at 5 µM (Compound Conc. 5 μM): 4.56%

COc1ccc(N(CCN2CCCCC2)S(=O)(=O)c2ccccc2)c(-c2ccccc2)c1 [4-35, N-(4-methoxy-2-phenyl-phenyl)-N-[2-(1-piperidyl)ethyl]benzensulfonamide]
activity at 0.312 µM: 89.5% | activity at 0.625 µM: 82.3% | activity at 1.25 µM: 1.82% | activity at 2.5 µM: 30.3%

CCOc1ccc(N(CC2CCN(CC)CC2)S(=O)(=O)c2ccccc2)c(-c2ccccc2)c1 [4-39]
activity at 0.005 µM: 98.4% | activity at 0.02 µM: 103% | activity at 1.25 µM: 116%

COc1ccc(N(CC2CCCN(C)C2)S(=O)(=O)c2ccccc2)c(-c2ccccc2)c1 (stereo not drawn) [4-42]
Viral Infection rate (%) (Compound Conc. 5 μM): 0.00% | activity at 0.005 µM: 95.6% | activity at 0.02 µM: 101% | activity at 0.078 µM: 102% | activity at 0.312 µM: 93% | activity at 0.625 µM: 28.4% | activity at 2.5 µM: 0.25% | activity at 5 µM (Compound Conc. 5 μM): ~0%

CCN1CCC(CN(c2ccc(C(C)C)cc2-c2ccccc2)S(=O)(=O)c2ccccc2)CC1 [4-45, N-(4-isopropyl-2-phenyl-phenyl)-N-(1-ethyl-4-piperidylmethyl)benzensulfonamide]
activity at 0.005 µM: 90.8% | activity at 0.02 µM: 101% | activity at 0.078 µM: 104% | activity at 0.312 µM: 103% | activity at 1.25 µM: 69.5% | activity at 5 µM (Compound Conc. 5 μM): 0.23%

CCN1CCC(CN(c2ccc(C(C)(C)C)cc2-c2ccccc2)S(=O)(=O)c2ccccc2)CC1 [4-48, N-(4-t-butyl-2-phenyl-phenyl)-N-(1-ethyl-4-piperidylmethyl)benzensulfonamide]
activity at 0.005 µM: 97.1% | activity at 0.02 µM: 104% | activity at 0.078 µM: 96.3% | activity at 5 µM (Compound Conc. 5 μM): 47.6%

CCN1CCC(CN(c2ccc(OC)cc2-c2ccc(F)cc2)S(=O)(=O)c2ccccc2)CC1 [4-51, N-[2-(4-fluorophenyl)-4-methoxy-phenyl)-N-(1-ethyl-4-piperidylmethyl)benzensulfonamide]
activity at 0.005 µM: 92.2% | activity at 0.02 µM: 84.5% | activity at 0.078 µM: 45% | activity at 0.312 µM: 11.9% | activity at 1.25 µM: 0.51% | activity at 5 µM (Compound Conc. 5 μM): 0%

CCN1CCC(CN(c2ccc(OC)cc2-c2cccc(F)c2)S(=O)(=O)c2ccccc2)CC1 [4-54, N-[2-(3-fluorophenyl)-4-methoxy-phenyl)-N-(1-ethyl-4-piperidylmethyl)benzensulfonamide]
activity at 0.02 µM: 90% | activity at 0.078 µM: 74.5% | activity at 0.312 µM: 28.6% | activity at 1.25 µM: 0.1% | activity at 5 µM (Compound Conc. 5 μM): 0%
